Assay results taken from US20160046604A1, “HETEROARYL SUBSTITUTED INDAZOLES” (BAYER PHARMA AKTIENGESELLSCHAFT, priority 2013, published 2016).
pIC50: −log10 of the molar value. Read-outs that look alike come from different tables or passages of the source.

What was measured:
[1] = target: T1, catalytic domain of human Bub1 (amino acids 704-1085) (Homo sapiens, UniProt O43683); experiment: Bub1 kinase assay (TR-FRET); assay type: biochemical
T1 construct: catalytic domain of human Bub1 (amino acids 704-1085); His6 (N); made in house; host or cells: Hi5 insect cells
Experimental: To this end, 100-fold concentrated compound solutions (in DMSO) were previously prepared by serial dilution (1:3.4) of 2 mM stocks in a clear low volume 384-well source microtiter plate (Greiner Bio-One, Frickenhausen, Germany), from which 50 nL of compounds were transferred into a black low volume test microtiter plate from the same supplier. […] The resulting mixture (5 μL final volume) was incubated at 22° C. during 60 min., and the reaction was stopped by the addition of 5 μL of an aqueous EDTA-solution (50 mM EDTA, in 100 mM HEPES pH 7.5 and 0.2% (w/v) bovine serum albumin) which also contained the TR-FRET detection reagents (0.2 μM streptavidin-XL665 [Cisbio Bioassays, Codolet, France] and 1 nM anti-phoshoSerine antibody [Merck Millipore, cat. #35-001] and 0.4 nM LANCE EU-W1024 labeled anti-mouse IgG antibody [Perkin-Elmer, product no. AD0077, alternatively a Terbium-cryptate-labeled anti-mouse IgG antibody from Cisbio Bioassays can be used]). The stopped reaction mixture was further incubated 1 h at 22° C. in order to allow the formation of complexes between peptides and detection reagents. Subsequently, the amount of product was evaluated by measurement of the resonance energy transfer from the Eu-chelate-antibody complex recognizing the Phosphoserine residue to the streptavidin-XL665 bound to the biotin moiety of the peptide. […] IC50 values were calculated by fitting the normalized inhibition data to a 4-parameter logistic equation (Minimum, Maximum, IC50, Hill; Y=Max+(Min−Max)/(1+(X/IC50)Hill)).

[2] = test system: HeLa human cervical tumor cells; experiment: Proliferation assay (HeLa cell line); settings: 96 h, read-out: Biological Assay 2: Proliferation assay (HeLa cell line) median IC50;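 note: crystal violet staining, absorbance at 595 nm, 0.001–10 µM test range, 4-day exposure, 0% is cell number at dosing and 100% untreated growth, IC50 from 4-parameter fit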
Experimental: Cultivated HeLa human cervical tumor cells (cells were ordered from ATCC CCL-2) were plated at a density of 3000 cells/well in a 96-well multititer plates in 200 microL DMEM/HAMS F12 culture medium (Biochrom F4815) supplemented with 10% fetal calf serum. After 24 hours, the cells of one plate (zero-point plate) were stained with crystal violet (see below), while the medium of the other plates was replaced by fresh culture medium (200 microL) containing the test substances in various concentrations (0 microM, as well as in the range of 0.001-10 microM; the final concentration of the solvent dimethyl sulfoxide was 0.5%). The cells were incubated for 4 days in the presence of test substances. Cell proliferation was determined by staining the cells with crystal violet: the cells were fixed by adding 20 microL/measuring point of an 11% glutaric aldehyde solution for 15 minutes at room temperature. After three washing cycles of the fixed cells with water, the plates were dried at room temperature. The cells were stained by adding 100 microL/measuring point of a 0.1% crystal violet solution (pH 3.0). After three washing cycles of the stained cells with water, the plates were dried at room temperature. The dye was dissolved by adding 100 microL/measuring point of a 10% acetic acid solution. Absorption was determined by photometry at a wavelength of 595 nm. The change of cell number, in percent, was calculated by normalization of the measured values to the absorption values of the zero-point plate (=0%) and the absorption of the untreated (0 microM) cells (=100%). The IC50 values were determined by means of a 4 parameter fit.

[3] = TR-FRET, recombinant catalytic domain of human Bub1, ATP 10 μM, peptide substrate 1 μM, 60 min at 22° C., read-out: Biological Assay 1: Bub1 kinase assay median IC50

T1 sequence (O43683 704-1085): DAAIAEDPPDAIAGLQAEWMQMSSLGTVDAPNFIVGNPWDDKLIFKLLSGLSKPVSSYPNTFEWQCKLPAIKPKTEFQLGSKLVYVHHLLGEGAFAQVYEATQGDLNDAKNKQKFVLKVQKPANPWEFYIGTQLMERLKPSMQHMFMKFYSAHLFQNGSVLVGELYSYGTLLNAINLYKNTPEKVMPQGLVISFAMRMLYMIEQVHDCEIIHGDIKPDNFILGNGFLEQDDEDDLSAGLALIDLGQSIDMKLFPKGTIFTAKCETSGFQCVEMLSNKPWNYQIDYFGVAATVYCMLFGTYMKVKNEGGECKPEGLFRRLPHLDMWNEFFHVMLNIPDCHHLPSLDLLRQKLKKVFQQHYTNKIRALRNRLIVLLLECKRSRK

| Compound | pIC50 [1, 3] | pIC50 [2] | pIC50 [1] |
| --- | --- | --- | --- |
| COc1cnc(-c2nn(Cc3nsc(N)n3)c3ccccc23)nc1Nc1ccncc1 [Example 2-2-3, 2-{1-[(5-amino-1,2,4-thiadiazol-3-yl)methyl]-1H-indazol-3-yl}-5-methoxy-N-(pyridin-4-yl)pyrimidin-4-amine] | 7.27 | < 5.00 |  |
| Cc1noc(C)c1Cn1nc(-c2nc(N)cc(Nc3ccncc3)n2)c2ccccc21 [Example 2-3-2, 2-{1-[(3,5-dimethyl-1,2-oxazol-4-yl)methyl]-1H-indazol-3-yl}-N-(pyridin-4-yl)pyrimidine-4,6-diamine] |  | 5.17 | 7.80 |
| CNC(=O)c1cnccc1Nc1nc(-c2nn(Cc3cc(C(C)C)no3)c3ccccc23)ncc1OC [Example 2-2-12, 4-[(2-{1-[(3-isopropyl-1,2-oxazol-5-yl)methyl]-1H-indazol-3-yl}-5-methoxypyrimidin-4-yl)amino]-N-methylnicotinamide] |  | < 5.00 | 8.24 |
| COc1cnc(-c2nn(Cc3c(C)noc3C)c3ccccc23)nc1Nc1ccncc1 [Example 2-1-3, 2-{1-[(3,5-dimethyl-1,2-oxazol-4-yl)methyl]-1H-indazol-3-yl}-5-methoxy-N-(pyridin-4-yl)pyrimidin-4-amine] | 7.52 | < 5.00 |  |
| COc1cnc(-c2nn(Cc3c(Cl)cnn3C)c3ccccc23)nc1Nc1ccncc1 [Example 2-2-1, 2-{1-[(4-chloro-1-methyl-1H-pyrazol-5-yl)methyl]-1H-indazol-3-yl}-5-methoxy-N-(pyridin-4-yl)pyrimidin-4-amine] | 8.05 | < 5.00 |  |
| COCc1noc(Cn2nc(-c3ncc(OC)c(Nc4ccncc4)n3)c3ccccc32)n1 [Example 2-2-4, 5-methoxy-2-(1-{[3-(methoxymethyl)-1,2,4-oxadiazol-5-yl]methyl}-1H-indazol-3-yl)-N-(pyridin-4-yl)pyrimidin-4-amine] | 6.55 | < 5.00 |  |

The next molecules have a higher pIC50 [2] than those just listed; values first:

| pIC50 [1, 3] | pIC50 [2] | pIC50 [1] | Compound |
| --- | --- | --- | --- |
|  | 6.19 | 7.51 | Cc1noc(C)c1Cn1nc(-c2nc(N)cc(Nc3ccncn3)n2)c2ccccc21 [Example 2-3-3, 2-{1-[(3,5-dimethyl-1,2-oxazol-4-yl)methyl]-1H-indazol-3-yl}-N-(pyrimidin-4-yl)pyrimidine-4,6-diamine] |
| 7.34 | 5.36 |  | COc1cnc(-c2nn(Cc3nn(C)cc3Cl)c3ccccc23)nc1Nc1ccncc1 [Example 2-2-2, 2-{1-[(4-chloro-1-methyl-1H-pyrazol-3-yl)methyl]-1H-indazol-3-yl}-5-methoxy-N-(pyridin-4-yl)pyrimidin-4-amine] |
|  | 5.59 | 8.08 | COc1cnc(-c2nn(Cc3c(Cl)ccnc3Cl)c3ccccc23)nc1Nc1ccncc1 [Example 2-1-1, 2-{1-[(2,4-dichloropyridin-3-yl)methyl]-1H-indazol-3-yl}-5-methoxy-N-(pyridin-4-yl)pyrimidin-4-amine] |
